± gives the expanded uncertainty stated by the source.
What was measured:
[1] = Liquid; for mass density: 298.15 K, 101.33 kPa
[2] = refractive index (Na D-line) (dimensionless); conditions: 298.15 K; 101.33 kPa; Liquid; Standard Abbe refractometry

| mass density [1] [kg/m3] | vapor or sublimation pressure ([1]; 425.63 K) [kPa] | refractive index [2] | vapor or sublimation pressure ([1]; 363.16 K) [kPa] | vapor or sublimation pressure ([1]; 369.75 K) [kPa] | Structure (SMILES) |
| --- | --- | --- | --- | --- | --- |
| 948.72 ± 0.49 | 101.3 ± 0.8 | 1.4265 ± 0.0008 |  |  | CN(C)C=O [dimethylformamide] |
| 741.81 ± 0.65 |  | 1.3784 ± 0.0008 | 101.3 ± 0.8 |  | CCCOCCC [dipropyl ether] |
| 799.62 ± 0.57 |  | 1.3836 ± 0.0008 |  | 101.3 ± 0.8 | CCCO [propan-1-ol] |
